# Measurements published in patent publication US20240366589A1, “NHE3-BINDING COMPOUNDS AND METHODS FOR INHIBITING PHOSPHATE TRANSPORT” (Ardelyx, Inc., priority 2013, published 2024).
# What was measured:
# [1] = tested on: phosphorus and calcium levels in the urine of rats; assay: Urinary excretion of phosphate and calcium in rats (16 h overnight urine); type: in vivo, rat; conditions: rats, oral gavage, 16 h post-dose
# [2] = biological target: T1, Human NHE3 (Homo sapiens, UniProt P48764); assay: Cell-based NHE3 activity under prompt conditions (OK cells, BCECF pH recovery), human NHE3; conditions: prompt conditions
# T1 construct: expressed in transfected cells; host or cells: Opossum kidney (OK) cells (ATCC), electroporation
# T1 sequence (P48764 26-834): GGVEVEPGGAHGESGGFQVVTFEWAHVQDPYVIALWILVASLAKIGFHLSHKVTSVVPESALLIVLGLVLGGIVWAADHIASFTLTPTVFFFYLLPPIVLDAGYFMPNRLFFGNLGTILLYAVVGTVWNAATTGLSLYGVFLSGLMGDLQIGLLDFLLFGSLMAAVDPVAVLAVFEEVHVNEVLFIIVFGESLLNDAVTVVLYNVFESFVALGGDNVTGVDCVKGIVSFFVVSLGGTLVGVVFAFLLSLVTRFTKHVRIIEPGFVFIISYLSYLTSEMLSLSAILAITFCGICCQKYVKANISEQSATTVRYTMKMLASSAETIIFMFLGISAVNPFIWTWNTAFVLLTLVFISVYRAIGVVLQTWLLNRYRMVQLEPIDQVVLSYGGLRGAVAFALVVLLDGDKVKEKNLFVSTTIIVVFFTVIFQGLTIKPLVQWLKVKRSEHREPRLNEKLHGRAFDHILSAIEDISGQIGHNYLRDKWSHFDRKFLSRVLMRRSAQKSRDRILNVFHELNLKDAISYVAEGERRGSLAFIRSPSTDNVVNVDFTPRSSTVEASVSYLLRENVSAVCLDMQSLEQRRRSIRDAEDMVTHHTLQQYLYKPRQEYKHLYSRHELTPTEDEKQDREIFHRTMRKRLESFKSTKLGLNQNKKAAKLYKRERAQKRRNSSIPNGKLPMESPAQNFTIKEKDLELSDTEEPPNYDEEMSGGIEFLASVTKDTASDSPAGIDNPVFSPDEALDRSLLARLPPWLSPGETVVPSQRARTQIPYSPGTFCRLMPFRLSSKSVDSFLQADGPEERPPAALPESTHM
# Method in brief: (§1)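 Read-out: initial rate of BCECF-reported intracellular pH recovery via Na+/H+ antiport, fitted to pIC50. Opossum kidney cells transfected with rat or human NHE3; NH4Cl prepulse with 5 μM BCECF-AM, 30 min RT; Na+-free choline buffer 10 min.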
# [3] = tested on: absorption of sodium from the intestinal lumen; assay: Inhibition of intestinal sodium absorption: urinary sodium (uNa) 16 h after single oral dose in rats; type: in vivo, rat; conditions: oral gavage, 16 h post-dose
# Method in brief: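 Urinary sodium mass over the 16 h after one oral gavage dose, measured by cation-exchange ion chromatography, reported as percent of water-vehicle group; ANOVA plus Dunnett's post hoc test. Groups of six 8-week-old Sprague-Dawley rats, housed individually in metabolic cages post-dose, fed and watered freely.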
# [4] = biological target: T2, Rat NHE3 (Rattus norvegicus, UniProt P26433); assay: Cell-based NHE3 activity under prompt conditions (OK cells, BCECF pH recovery), rat NHE3; conditions: prompt conditions; for IC50: read-out: Prompt Rat NHE3 pIC50 (converted)
# T2 construct: expressed in transfected cells; host or cells: Opossum kidney (OK) cells (ATCC), electroporation
# T2 sequence (P26433 29-831): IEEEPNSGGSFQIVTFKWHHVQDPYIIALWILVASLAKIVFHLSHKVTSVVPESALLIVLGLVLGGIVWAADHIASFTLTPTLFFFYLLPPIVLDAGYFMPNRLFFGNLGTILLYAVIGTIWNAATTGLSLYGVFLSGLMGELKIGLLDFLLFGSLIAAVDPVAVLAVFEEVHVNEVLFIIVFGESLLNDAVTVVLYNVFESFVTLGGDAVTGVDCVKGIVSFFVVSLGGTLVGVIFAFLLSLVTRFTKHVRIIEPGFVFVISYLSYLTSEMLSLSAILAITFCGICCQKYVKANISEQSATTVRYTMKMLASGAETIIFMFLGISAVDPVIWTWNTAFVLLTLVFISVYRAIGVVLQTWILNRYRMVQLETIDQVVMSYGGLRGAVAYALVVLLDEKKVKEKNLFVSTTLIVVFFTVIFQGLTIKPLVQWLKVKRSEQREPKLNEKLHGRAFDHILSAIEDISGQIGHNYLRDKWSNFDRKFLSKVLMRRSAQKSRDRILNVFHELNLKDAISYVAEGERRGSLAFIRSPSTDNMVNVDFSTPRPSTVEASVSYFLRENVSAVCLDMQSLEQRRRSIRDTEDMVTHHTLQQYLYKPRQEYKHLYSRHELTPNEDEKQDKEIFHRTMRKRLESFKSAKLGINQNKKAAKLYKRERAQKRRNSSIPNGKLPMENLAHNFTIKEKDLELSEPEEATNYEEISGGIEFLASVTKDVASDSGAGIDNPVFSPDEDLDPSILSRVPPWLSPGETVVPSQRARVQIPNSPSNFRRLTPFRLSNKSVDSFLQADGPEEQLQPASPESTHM
# Method in brief: as §1
# [5] = tested on: absorption of sodium from the intestinal lumen; assay: Fecal form score (FFS) 16 h after oral dose in rats; type: in vivo, rat; conditions: oral gavage, 16 h post-dose, scale 1-5
# Method in brief: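 Fecal form was scored at 16 h post-dose on a 1–5 wetness scale (normal pellet to liquid stream), with two independent observations averaged across six rats per group. Animals were 8-week-old Sprague-Dawley rats given test compound or water orally in the late afternoon and kept in metabolic cages.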
Prompt Human NHE3 pIC50 [2],Prompt Rat NHE3 pIC50 [4],IC50 [4] [nM],IC50 ([2]; read-out: Prompt Human NHE3 pIC50 (converted)) [nM],Compound,Urine P % of control ([1]; dose 10 mg/kg) [%],Urine Na % of control ([3]; dose 10 mg/kg) [%],Fecal Form Score average ([5]; dose 10 mg/kg),Urine P % of control ([1]; dose 1 mg/kg) [%],Urine P % of control ([1]; dose 3 mg/kg) [%],Urine Na % of control ([3]; dose 1 mg/kg) [%],Urine Na % of control ([3]; dose 3 mg/kg) [%],Fecal Form Score average ([5]; dose 1 mg/kg),Fecal Form Score average ([5]; dose 3 mg/kg),Urine P % of control ([1]; dose 30 mg/kg) [%],Urine Na % of control ([3]; dose 30 mg/kg) [%],Fecal Form Score average ([5]; dose 30 mg/kg)
<5.00,<5.00,,,CN1Cc2c(Cl)cc(Cl)cc2[C@H](c2cccc(S(=O)(=O)NCCOCCOCCNC(=O)NCCN(CCNC(=O)NCCOCCOCCNS(=O)(=O)c3cccc([C@@H]4CN(C)Cc5c(Cl)cc(Cl)cc54)c3)C(=O)CCCCCCCCCCC(=O)N(CCNC(=O)NCCOCCOCCNS(=O)(=O)c3cccc([C@@H]4CN(C)Cc5c(Cl)cc(Cl)cc54)c3)CCNC(=O)NCCOCCOCCNS(=O)(=O)c3cccc([C@@H]4CN(C)Cc5c(Cl)cc(Cl)cc54)c3)c2)C1 [compound 83],59,82,1,,,,,,,,,
7.70,6.00,,,CCN(CCOCCOCCNC(=O)NCCCN(CCCNC(=O)NCCOCCOCCN(CC)S(=O)(=O)c1cccc([C@@H]2CN(C)Cc3c(Cl)cc(Cl)cc32)c1)CCCNC(=O)NCCOCCOCCN(CC)S(=O)(=O)c1cccc([C@@H]2CN(C)Cc3c(Cl)cc(Cl)cc32)c1)S(=O)(=O)c1cccc([C@@H]2CN(C)Cc3c(Cl)cc(Cl)cc32)c1 [compound 132],,,,,88,,65,,1,,,
7.50,,67.6,,CN1Cc2c(Cl)cc(Cl)cc2[C@H](c2cccc(S(=O)(=O)NCCOCCOCCNC(=O)CCC(CCC(=O)NCCOCCOCCNS(=O)(=O)c3cccc([C@@H]4CN(C)Cc5c(Cl)cc(Cl)cc54)c3)(CCC(=O)NCCOCCOCCNS(=O)(=O)c3cccc([C@@H]4CN(C)Cc5c(Cl)cc(Cl)cc54)c3)N(C)C)c2)C1 [compound 124],,,,154,61,69,22,1,2,,,
6.30,5.30,,,CN1Cc2c(Cl)cc(Cl)cc2[C@H](c2cccc(S(=O)(=O)NCCOCCOCCOCCn3cc(CN(Cc4cn(CCOCCOCCOCCNS(=O)(=O)c5cccc([C@@H]6CN(C)Cc7c(Cl)cc(Cl)cc76)c5)nn4)Cc4cnnn4CCOCCOCCOCCNS(=O)(=O)c4cccc([C@@H]5CN(C)Cc6c(Cl)cc(Cl)cc65)c4)nn3)c2)C1 [compound 73],49,74,2,,,,,,,,,
7.93,7.07,,,CN1Cc2c(Cl)cc(Cl)cc2[C@H](c2cccc(S(=O)(=O)NCCOCCOCCNC(=O)CCC(N)(CCC(=O)NCCOCCOCCNS(=O)(=O)c3cccc([C@@H]4CN(C)Cc5c(Cl)cc(Cl)cc54)c3)CCC(=O)NCCOCCOCCNS(=O)(=O)c3cccc([C@@H]4CN(C)Cc5c(Cl)cc(Cl)cc54)c3)c2)C1 [compound 88],69,21,5,77,75,84,22,1,3,,,
6.93,5.50,,,CN1Cc2c(Cl)cc(Cl)cc2[C@H](c2cccc(S(=O)(=O)NCCOCCOCCNC(=O)CCN(CCC(=O)NCCOCCOCCNS(=O)(=O)c3cccc([C@@H]4CN(C)Cc5c(Cl)cc(Cl)cc54)c3)CCC(=O)NCCOCCOCCNS(=O)(=O)c3cccc([C@@H]4CN(C)Cc5c(Cl)cc(Cl)cc54)c3)c2)C1 [compound 80],21,9,3,70,39,66,55,1,2,,,
7.80,7.70,,,CN1Cc2c(Cl)cc(Cl)cc2[C@H](c2cccc(S(=O)(=O)NCCOCCOCCN(C)C(=O)CCC(CCC(=O)N(C)CCOCCOCCNS(=O)(=O)c3cccc([C@@H]4CN(C)Cc5c(Cl)cc(Cl)cc54)c3)(CCC(=O)N(C)CCOCCOCCNS(=O)(=O)c3cccc([C@@H]4CN(C)Cc5c(Cl)cc(Cl)cc54)c3)NC(=O)COCC(=O)O)c2)C1 [compound 177],,,,,45,,52,,2,,,

# The next lines start with the compound.
Compound,Prompt Human NHE3 pIC50 [2],Prompt Rat NHE3 pIC50 [4],IC50 [4] [nM],IC50 ([2]; read-out: Prompt Human NHE3 pIC50 (converted)) [nM],Urine P % of control ([1]; dose 10 mg/kg) [%],Urine Na % of control ([3]; dose 10 mg/kg) [%],Fecal Form Score average ([5]; dose 10 mg/kg),Urine P % of control ([1]; dose 1 mg/kg) [%],Urine P % of control ([1]; dose 3 mg/kg) [%],Urine Na % of control ([3]; dose 1 mg/kg) [%],Urine Na % of control ([3]; dose 3 mg/kg) [%],Fecal Form Score average ([5]; dose 1 mg/kg),Fecal Form Score average ([5]; dose 3 mg/kg),Urine P % of control ([1]; dose 30 mg/kg) [%],Urine Na % of control ([3]; dose 30 mg/kg) [%],Fecal Form Score average ([5]; dose 30 mg/kg)
CN(C)[C@H]1Cc2ccc(Cl)cc2[C@@H]1Oc1ccc(S(=O)(=O)NCCOCCOCCNC(=O)NCCCCNC(=O)NCCOCCOCCNS(=O)(=O)c2ccc(O[C@H]3c4cc(Cl)ccc4C[C@@H]3N(C)C)cc2)cc1 [compound 116],8.30,<5.00,,,130,84,1,,,,,,,,,
O=C(NCCCCNC(=O)NCCOCCOCCOCCNS(=O)(=O)c1ccc(O[C@H]2c3ccccc3C[C@@H]2N2CCCCC2)cc1)NCCOCCOCCOCCNS(=O)(=O)c1ccc(O[C@H]2c3ccccc3C[C@@H]2N2CCCCC2)cc1 [compound 72],8.25,,5.01,,43,33,1,99,115,82,74,1,2,,,
O=C(NCCOCCOCCOCCNS(=O)(=O)c1ccc(OC2c3ccccc3CC2N2CCCCC2)cc1)C(O)C(O)C(=O)NCCOCCOCCOCCNS(=O)(=O)c1ccc(OC2c3ccccc3CC2N2CCCCC2)cc1 (mixture of isomers) [compound 55],,,20,12.6,45,85,1,,,,,,,,,
N=C(N)Nc1nc(-c2ccc(OCCOCCOCCOCCNC(=O)NCCOCCOCCNC(=O)NCCCCNC(=O)NCCOCCOCCNC(=O)NCCOCCOCCOCCOc3ccc(-c4nc(NC(=N)N)nc5ccc(Cl)cc45)cc3)cc2)c2cc(Cl)ccc2n1 [compound 36],8.00,7.60,,,86,85,1,,,,,,,,,
N=C(N)Nc1nc(-c2ccc(N3CCN(CCOCCOCCOCCNC(=O)CCOCCOCCOCCOCCOCCC(=O)NCCOCCOCCOCCN4CCN(c5ccc(-c6nc(NC(=N)N)nc7ccc(Cl)cc67)cc5)CC4)CC3)cc2)c2cc(Cl)ccc2n1 [compound 24],8.58,7.68,,,80,100,1,,,,,,,70,27,3
N=C(N)Nc1nc(-c2ccc(S(=O)(=O)NCCOCCOCCN)cc2)c2cc(Cl)ccc2n1 [compound 8],6.40,6.90,,,101,73,1,,,,,,,114,31,2
CN1Cc2c(Cl)cc(Cl)cc2[C@H](c2cccc(S(=O)(=O)NCCOCCOCCNC(=O)COCC(=O)NCCOCCOCCNS(=O)(=O)c3ccc(O[C@H]4c5ccccc5C[C@@H]4N4CCCCC4)cc3)c2)C1 [compound 97],8.50,7.60,,,78,64,1,,,,,,,,,
